Assays:
[1] = tested on: Puccinia recondita f. sp. tritici; assay: Puccinia recondita (brown rust), preventative, wheat leaf segments; type: in vivo; conditions: foliar, 192 h, 8 dpi, compared to untreated control
Method: (§1) Wheat leaf segments are placed on agar in multiwell plates (24-well format) and sprayed with test solutions. After drying, the leaf segments are inoculated with a spore suspension of the fungus. After appropriate incubation the activity of a compound is assessed 8 dpi (days after inoculation) as preventative fungicidal activity.

[2] = tested on: Erysiphe graminis f. sp. tritici; assay: Erysiphe graminis f. sp. tritici (wheat powdery mildew), wheat leaf segments, preventive; type: in vivo; conditions: Blumeria graminis, foliar, 168 h, 7 dpi, compared to untreated control
Method: Wheat leaf segments are placed on agar in multiwell plates (24-well format) and sprayed with test solutions. After drying, the leaf disks are inoculated with spores of the fungus. After appropriate incubation the activity of a compound is assessed 7 dpi (days post inoculation) as preventive fungicidal activity.

Mycosphaerella arachidis = Mycosphaerella arachidis syn. Cercospora arachidicola (brown leaf spot of peanut), liquid culture growth inhibition; type: cell-based; conditions: nutrient broth (PDB), approximately 5-6 days, photometric at 620 nm, compared to untreated control
Method: (§2) Conidia of the fungus from cryogenic storage were directly mixed into nutrient broth (PDB potato dextrose broth). A DMSO solution of the test compounds was placed into a microtiter plate (96-well format) and the nutrient broth containing the fungal spores was added to it. The test plates were incubated at 24° C. and the inhibition of growth was determined photometrically after approximately 5-6 5 days at 620 nm.

Plasmopara viticola = Plasmopara viticola (downy mildew of grapevine), grape vine leaf disks, preventive; type: in vivo; conditions: foliar, 168 h, 7 dpi, compared to untreated control
Method: as §1, with “Grape vine” for “Wheat”, “disks” for “segments”, “7” for “8”, “preventive” for “preventative”

Monographella nivalis = Monographella nivalis syn. Microdochium nivale (snow mould, foot rot of cereals), liquid culture growth inhibition; type: cell-based; conditions: nutrient broth (PDB), 72 hrs, photometric at 620 nm, compared to untreated control
Method: as §2, with “72 hrs” for “approximately 5-6 5 days”, “nm. […] Cercospora arachidicola (Brown Leaf Spot of Peanut): […]” for “nm.”

Glomerella lagenarium = Glomerella lagenarium syn. Colletotrichum lagenarium (anthracnose of cucurbits), liquid culture growth inhibition; type: cell-based; conditions: Colletotrichum orbiculare, nutrient broth (PDB), 72 hrs, photometric at 620 nm, compared to untreated control
Method: as §2, with “Glomerella lagenarium Syn. Colletotrichum lagenarium (Anthracnose of Cucurbits): Conidia” for “Conidia”, “72 hrs” for “approximately 5-6 5 days”, “nm. […]” for “nm.”

Phakopsora pachyrhizi [3] = assay: Example D: comparative activity against Phakopsora pachyrhizi (soybean rust), soybean plants sprayed, leaf disks cut from treated plants; type: in vivo; conditions: 0.1% OCHIMA, leaf disks cut one day after application, approx. 12 dpi
Method: Method: Soybean plants are sprayed in a spray chamber with formulated DMSO compound solutions which are diluted to the appropriate concentration with 0.1% […] (adjuvant comprising polyethoxylated sorbitol hexaoleate and tris(2-ethylhexyl) phosphate) just before spraying. Leaf disks are cut from treated plants and placed on agar into 24-well plates one day after application. After, the leaf disks are inoculated with a spore suspension of the fungus. After appropriate incubation the activity of a compound is assessed approx. 12 dpi (days after inoculation) as preventive fungicidal activity. The data are presented as the percentage of disease control of each compound for the biological tests and testing rates described below in Table 1.

Puccinia recondita = assay: Example C: comparative activity against Puccinia recondita (brown rust), curative, wheat leaf segments; type: in vivo; conditions: 8 dpi
Method: Method; Wheat leaf segments are placed on agar in multiwell plates (24-well format). The leaf segments are inoculated with a spore suspension of the fungus and sprayed with test solutions 1 day after inoculation. After appropriate incubation the activity of a compound is assessed 8 dpi (days after inoculation) as curative fungicidal activity. The data are presented as the percentage of disease control of each compound for the biological tests and testing rates described below in table H.

Phakopsora pachyrhizi [4] = assay: Example E: comparative activity against Phakopsora pachyrhizi (soybean rust), soybean leaf disks sprayed; type: in vivo; conditions: 0.025% Tween20, approx. 12 dpi
Method: Method: Compounds to be tested are prepared as DMSO solutions which are diluted to the appropriate concentration with 0.025% Tween20 just before spraying. Soybean leaf disks are placed on agar in multiwell plates (24-well format) and sprayed with test solutions. After drying, the leaf disks are inoculated with a spore suspension of the fungus. After appropriate incubation the activity of a compound is assessed approx. 12 dpi (days after inoculation) as preventive fungicidal activity. The data are presented as the percentage of disease control of each compound for the biological tests and testing rates described below in Table J.

Phakopsora pachyrhizi [5] = assay: Phakopsora pachyrhizi (soybean rust), soybean leaf disks, preventive; type: in vivo; conditions: foliar, 288 h, approx. 12 dpi, compared to untreated control
Method: as §1, with “Soybean” for “Wheat”, “disks” for “segments”, “approx. 12” for “8”, “preventive” for “preventative”

[6] = tested on: Puccinia recondita f. sp. tritici; assay: Puccinia recondita (brown rust), curative, wheat leaf segments; type: in vivo; conditions: foliar, 192 h, sprayed 1 day after inoculation, 8 dpi, compared to untreated control
Method: Wheat leaf segments are placed on agar in multiwell plates (24-well format). The leaf segments are inoculated with a spore suspension of the fungus and sprayed with test solutions 1 day after inoculation. After appropriate incubation the activity of a compound is assessed 8 dpi (days after inoculation) as curative fungicidal activity.

Pyricularia oryzae = assay: whole plant or invertebrate; type: in vivo; conditions: foliar, 120 h, read-out: control of Pyricularia oryzae

With `CO/C=C(\Oc1cc(C2=CCC(C)(C)CC2)ccc1C)C(=O)OC` [F.10, methyl (Z)-2-[5-(4,4-dimethylcyclohexen-1-yl)-2-methyl-phenoxy]-3-methoxy-prop-2-enoate] the pest or weed control at 200 ppm [1] was at least 80%, the pest or weed control at 200 ppm [2] was at least 80% and the inhibition of growth at 20 ppm (Mycosphaerella arachidis) was at least 80%. For the same molecule, the pest or weed control at 200 ppm (Plasmopara viticola) was at least 80%, the inhibition of growth at 20 ppm (Monographella nivalis) was at least 80% and the inhibition of growth at 20 ppm (Glomerella lagenarium) was at least 80%.
Molecule `CO/C=C(\Oc1cc(C2CCCCC2)ccc1F)C(=O)OC` [E.11, methyl (Z)-2-(5-cyclohexy1-2-fluoro-phenoxy)-3-methoxy-prop-2-enoate] has a pest or weed control at 200 ppm [2] of at least 80%, an inhibition of growth at 20 ppm (Mycosphaerella arachidis) of at least 80% and a pest or weed control at 200 ppm (Plasmopara viticola) of at least 80%. It also gave an inhibition of growth at 20 ppm (Monographella nivalis) of at least 80% and an inhibition of growth at 20 ppm (Glomerella lagenarium) of at least 80%.
Molecule `CO/C=C(\Oc1cc(C2CCCCC2)ccc1Br)C(=O)OC` [E.8, methyl (Z)-2-(2-bromo-5-cyclohexyl-phenoxy)-3-methoxy-prop-2-enoate] has a pest or weed control at 200 ppm [1] of at least 80%, a pest or weed control at 200 ppm [2] of at least 80% and an inhibition of growth at 20 ppm (Mycosphaerella arachidis) of at least 80%. It also gave a pest or weed control at 200 ppm (Plasmopara viticola) of at least 80% and an inhibition of growth at 20 ppm (Monographella nivalis) of at least 80%.
Work on `CO/C=C(\Oc1cc(C2CCCCC2)ccc1OC)C(=O)OC` [E.10, methyl (Z)-2-(5-cyclohexy1-2-methoxy-phenoxy)-3-methoxy-prop-2-enoate] yielded a pest or weed control at 200 ppm [1] of at least 80%, a pest or weed control at 200 ppm [2] of at least 80% and an inhibition of growth at 20 ppm (Mycosphaerella arachidis) of at least 80%. It also gave a pest or weed control at 200 ppm (Plasmopara viticola) of at least 80% and an inhibition of growth at 20 ppm (Monographella nivalis) of at least 80%.
In the case of `CO/C=C(\Oc1cccc(C(C)(C)C)c1)C(=O)OC` [Compound X-2, reference compound], the “control (%) Phakopsora pachyrhizi (Soybean rust)” value (from here on “control (%) Phakopsora pachyrhizi”) (Phakopsora pachyrhizi [3]; 6 ppm) is reported as 0%, the “control (%) Phakopsora pachyrhizi” value (Phakopsora pachyrhizi [3]; 20 ppm) is reported as 0% and the “control (%) Phakopsora pachyrhizi” value (Phakopsora pachyrhizi [3]; 60 ppm) is reported as 0%. For the same molecule, the “control (%) Phakopsora pachyrhizi” value (Phakopsora pachyrhizi [3]; 200 ppm) was 0%, the “control (%) Puccinia recondita (Brown rust), curative” value (“control (%) Puccinia recondita” below) (Puccinia recondita; 20 ppm) was 0% and the “control (%) Puccinia recondita” value (Puccinia recondita; 60 ppm) was 0%. The “control (%) Puccinia recondita” value (Puccinia recondita; 200 ppm) was 0%, the “control (%) Phakopsora pachyrhizi” value (Phakopsora pachyrhizi [4]; 0.6 ppm) was 0% and the “control (%) Phakopsora pachyrhizi” value (Phakopsora pachyrhizi [4]; 2 ppm) was 0%. For the same molecule, the “control (%) Phakopsora pachyrhizi” value (Phakopsora pachyrhizi [4]; 6 ppm) was 0%, the “control (%) Phakopsora pachyrhizi” value (Phakopsora pachyrhizi [4]; 20 ppm) was 0% and the “control (%) Phakopsora pachyrhizi” value (Phakopsora pachyrhizi [4]; 60 ppm) was 10%. For the same molecule, the “control (%) Phakopsora pachyrhizi” value (Phakopsora pachyrhizi [4]; 200 ppm) was 10%.
`CO/C=C(\Oc1cc(C2CC2)ccc1C)C(=O)OC` [E.14, methyl (Z)-2-(5-cyclopropy1-2-methyl-phenoxy)-3-methoxy-prop-2-enoate] was tested, and the pest or weed control at 200 ppm [1] was at least 80%, the pest or weed control at 200 ppm [2] was at least 80% and the inhibition of growth at 20 ppm (Mycosphaerella arachidis) was at least 80%. It also gave a pest or weed control at 200 ppm (Plasmopara viticola) of at least 80%, an inhibition of growth at 20 ppm (Monographella nivalis) of at least 80% and a pest or weed control at 60 ppm (Phakopsora pachyrhizi [5]) of at least 70%. For the same molecule, the inhibition of growth at 20 ppm (Glomerella lagenarium) was at least 80%.
With `CO/C=C(\Oc1cc(C#CC2CCCCC2)ccc1C)C(=O)OC` [Compound X-1, reference compound] the “control (%) Phakopsora pachyrhizi” value (Phakopsora pachyrhizi [3]; 6 ppm) was 0%, the “control (%) Phakopsora pachyrhizi” value (Phakopsora pachyrhizi [3]; 20 ppm) was 0% and the “control (%) Phakopsora pachyrhizi” value (Phakopsora pachyrhizi [3]; 60 ppm) was 0%. The “control (%) Phakopsora pachyrhizi” value (Phakopsora pachyrhizi [3]; 200 ppm) was 63%, the “control (%) Puccinia recondita” value (Puccinia recondita; 20 ppm) was 0% and the “control (%) Puccinia recondita” value (Puccinia recondita; 60 ppm) was 0%. The “control (%) Puccinia recondita” value (Puccinia recondita; 200 ppm) was 0%, the “control (%) Phakopsora pachyrhizi” value (Phakopsora pachyrhizi [4]; 0.6 ppm) was 0% and the “control (%) Phakopsora pachyrhizi” value (Phakopsora pachyrhizi [4]; 2 ppm) was 0%. The “control (%) Phakopsora pachyrhizi” value (Phakopsora pachyrhizi [4]; 6 ppm) was 35%, the “control (%) Phakopsora pachyrhizi” value (Phakopsora pachyrhizi [4]; 20 ppm) was 80% and the “control (%) Phakopsora pachyrhizi” value (Phakopsora pachyrhizi [4]; 60 ppm) was 100%. For the same molecule, the “control (%) Phakopsora pachyrhizi” value (Phakopsora pachyrhizi [4]; 200 ppm) was 100%.
In the case of `CO/C=C(\Oc1cc(C2CCC(OC)CC2)ccc1C)C(=O)OC` (centres unmarked) [E.19, methyl (Z)-3-methoxy-2-[5-(4-methoxycyclohexyl)-2-methyl-phenoxy]prop-2-enoate], the pest or weed control at 200 ppm [1] is reported as at least 80%, the pest or weed control at 200 ppm [2] is reported as at least 80% and the pest or weed control at 200 ppm [6] is reported as at least 80%. For the same molecule, the inhibition of growth at 20 ppm (Mycosphaerella arachidis) was at least 80%, the pest or weed control at 200 ppm (Plasmopara viticola) was at least 80% and the inhibition of growth at 20 ppm (Monographella nivalis) was at least 80%. The inhibition of growth at 20 ppm (Glomerella lagenarium) was at least 80%.
Work on `CO/C=C(\Oc1cc(C2=CCC(O)CC2)ccc1C)C(=O)OC` (centres unmarked) [F.8, methyl (Z)-2-[5-(4-hydroxycyclohexen-1-yl)-2-methyl-phenoxy]-3-methoxy-prop-2-enoate] yielded a pest or weed control at 200 ppm [1] of at least 80%, a pest or weed control at 200 ppm [2] of at least 80% and an inhibition of growth at 20 ppm (Mycosphaerella arachidis) of at least 80%. The inhibition of growth at 20 ppm (Monographella nivalis) was at least 80%.
With `CO/C=C(\Oc1cc(C2CCC(C(F)(F)F)CC2)ccc1C)C(=O)OC` (centres unmarked) [E.1, methyl (Z)-3-methoxy-2-[2-methyl-5-[4-(trifluoromethyl)cyclohexyl]phenoxy] prop-2-enoate] the pest or weed control at 200 ppm [1] was at least 80%, the pest or weed control at 200 ppm [2] was at least 80% and the inhibition of growth at 20 ppm (Mycosphaerella arachidis) was at least 80%. For the same molecule, the inhibition of growth at 20 ppm (Monographella nivalis) was at least 80%.
With `CO/C=C(\Oc1cc(C2CCC(C(C)C)CC2)ccc1C)C(=O)OC` (centres unmarked) [E.17, methyl (Z)-2-[5-(4-isopropylcyclohexyl)-2-methyl-phenoxy]-3-methoxy-prop-2-enoate] the pest or weed control at 200 ppm [2] was at least 80%, the inhibition of growth at 20 ppm (Mycosphaerella arachidis) was at least 80% and the inhibition of growth at 20 ppm (Monographella nivalis) was at least 80%. The inhibition of growth at 20 ppm (Glomerella lagenarium) was at least 80%.
For `CO/C=C(\Oc1cc(C2CCC(F)(F)CC2)ccc1C)C(=O)OC` [E.6, methyl (Z)-2-[5-(4,4-difluorocyclohexyl)-2-methyl-phenoxy]-3-methoxy-prop-2-enoate], the pest or weed control at 200 ppm [1] was at least 80%, the pest or weed control at 200 ppm [2] was at least 80% and the inhibition of growth at 20 ppm (Mycosphaerella arachidis) was at least 80%. The pest or weed control at 200 ppm (Plasmopara viticola) was at least 80%, the inhibition of growth at 20 ppm (Monographella nivalis) was at least 80% and the inhibition of growth at 20 ppm (Glomerella lagenarium) was at least 80%. The pest or weed control at 200 ppm (Pyricularia oryzae) was at least 80%.
`CO/C=C(\Oc1cc(C2=CCCCCC2)ccc1C)C(=O)OC` [F.5, methyl (Z)-2-[5-(cyclohepten-1-yl)-2-methyl-phenoxy]-3-methoxy-prop-2-enoate] showed a pest or weed control at 200 ppm [2] of at least 80%, an inhibition of growth at 20 ppm (Mycosphaerella arachidis) of at least 80% and a pest or weed control at 200 ppm (Plasmopara viticola) of at least 80%. The inhibition of growth at 20 ppm (Monographella nivalis) was at least 80% and the inhibition of growth at 20 ppm (Glomerella lagenarium) was at least 80%.
With `CO/C=C(\Oc1cc(C2CCCCCC2)ccc1C)C(=O)OC` [E.3, methyl (Z)-2-(5-cyclohepty1-2-methyl-phenoxy)-3-methoxy-prop-2-enoate] the pest or weed control at 200 ppm [1] was at least 80%, the pest or weed control at 200 ppm [2] was at least 80% and the inhibition of growth at 20 ppm (Mycosphaerella arachidis) was at least 80%. It also gave a pest or weed control at 200 ppm (Plasmopara viticola) of at least 80%, an inhibition of growth at 20 ppm (Monographella nivalis) of at least 80% and an inhibition of growth at 20 ppm (Glomerella lagenarium) of at least 80%. The pest or weed control at 200 ppm (Pyricularia oryzae) was at least 80%.
